Laboratory results published in PubChem BioAssay (NCI).
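Where inhibition never reached the appropriate level, the endpoint shown equals the highest concentration tested. Otherwise, values were interpolated linearly from a five-concentration, 48-hour dose response in 96-well plates. GI50: concentration for 50% inhibition of growth. TGI: total growth inhibition.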

Assays:
Assay in all cases: NCI anticancer screen, dose series, 48 h
PC-3 prostate = tested on: PC-3 prostate
OVCAR-3 ovarian = tested on: OVCAR-3 ovarian
UACC-62 melanoma = tested on: UACC-62 melanoma
UACC-257 melanoma = tested on: UACC-257 melanoma
SK-OV-3 ovarian = tested on: SK-OV-3 ovarian
LOX IMVI melanoma = tested on: LOX IMVI melanoma
KM12 colon = tested on: KM12 colon
HT29 colon = tested on: HT29 colon
SNB-19 CNS = tested on: SNB-19 CNS
MDA-MB-231 breast = tested on: MDA-MB-231 breast

SMILES | GI50 (PC-3 prostate) | TGI (PC-3 prostate) | GI50 (OVCAR-3 ovarian) | TGI (OVCAR-3 ovarian) | GI50 (UACC-62 melanoma) | TGI (UACC-62 melanoma) | GI50 (UACC-257 melanoma) | TGI (UACC-257 melanoma) | GI50 (SK-OV-3 ovarian) | TGI (SK-OV-3 ovarian) | GI50 (LOX IMVI melanoma) | TGI (LOX IMVI melanoma) | GI50 (KM12 colon) | TGI (KM12 colon) | GI50 (HT29 colon) | TGI (HT29 colon) | GI50 (SNB-19 CNS) | TGI (SNB-19 CNS) | GI50 (MDA-MB-231 breast) | TGI (MDA-MB-231 breast)
CC(=Nc1ccccc1)C1=C(O)C(Cc2ccc(F)cc2)NC1=O (centres undefined) | 0.894 µM | > 100 µM | 0.323 µM | 1.2 µM | 0.664 µM | > 100 µM | > 100 µM | > 100 µM | 1.23 µM | 9.01 µM | 0.619 µM | > 100 µM | 0.4 µM | > 100 µM | 0.339 µM | > 100 µM | 4.75 µM | > 100 µM | 1.7 µM | > 100 µM
COc1ccc(C[C@H]2NC[C@H](O)[C@H]2OC(C)=O)cc1 | – | 0.49 µM | – | 0.335 µM | – | 0.225 µM | – | 2.89 µM | – | 0.895 µM | – | 0.0409 µM | – | 0.211 µM | – | 0.179 µM | – | 0.289 µM | – | 0.079 µM
C#CCN(Cc1nc2cc(C(F)(F)F)ccc2nc1-c1ccccc1)c1ccc(F)cc1 | 32 µM | > 100 µM | 29.8 µM | > 100 µM | 25.5 µM | > 100 µM | 18.7 µM | 63 µM | 33.4 µM | > 100 µM | 30.5 µM | 97.8 µM | 21.3 µM | 60.9 µM | 34.9 µM | > 100 µM | 34.9 µM | > 100 µM | 21.6 µM | 56.8 µM
CN1CCN(c2ccc(-c3cccc(CN4CCOCC4)c3)cc2NC(=O)c2c[nH]c(=O)cc2C(F)(F)F)CC1 | 32.3 µM | > 100 µM | 31.7 µM | > 100 µM | 60.1 µM | > 100 µM | 16.9 µM | 31.6 µM | > 100 µM | > 100 µM | 25.1 µM | > 100 µM | 46.8 µM | > 100 µM | 17.9 µM | 58.3 µM | 94.7 µM | > 100 µM | 16.3 µM | 54.6 µM
N#CC(C(=O)O)C(c1c(Cl)cccc1Cl)C(C#N)C(=O)O (centres undefined) | – | > 100 µM | – | > 100 µM | – | > 100 µM | – | > 100 µM | – | > 100 µM | – | > 100 µM | – | > 100 µM | – | > 100 µM | – | > 100 µM | – | > 100 µM
CCOC(=O)C(=O)C(/C(=N/N(C)C)C(=O)Nc1ccc(C)cc1C)c1nc2ccccc2[nH]c1=O (centres undefined) | – | > 100 µM | – | > 100 µM | – | > 100 µM | – | > 100 µM | – | > 100 µM | – | > 100 µM | – | > 100 µM | – | > 100 µM | – | > 100 µM | – | > 100 µM
O=C1c2ccccc2-c2c1c1ccc([N+](=O)[O-])cc1c(=O)n2CCCn1ccnc1 | 0.832 µM | 14.3 µM | 0.334 µM | 2.12 µM | 0.0116 µM | 0.0348 µM | 0.379 µM | 1.83 µM | 9.63 µM | > 39.5 µM | 0.152 µM | 0.33 µM | 0.0227 µM | 1.25 µM | < 0.0418 µM | 10.9 µM | 0.358 µM | > 34.4 µM | 0.15 µM | 0.408 µM
CN1CCN(Cc2ccc(NC(=O)c3cccc(C#Cc4c(N)ncc5ccc(F)cc45)c3)cc2C(F)(F)F)CC1 | 0.852 µM | 1.86 µM | 0.853 µM | 1.8 µM | 0.698 µM | 1.4 µM | 0.969 µM | 2.11 µM | 1.19 µM | 2.99 µM | 0.597 µM | 1.25 µM | 0.121 µM | 0.754 µM | 0.391 µM | 1.87 µM | 0.916 µM | 1.65 µM | 0.545 µM | 1.21 µM
O=S(=O)(NCCNc1cc(-c2cn(-c3ccccc3)nc2-c2cccc(O)c2)ccn1)c1ccc(Br)cc1 | 2.07 µM | 6.41 µM | 2.01 µM | 4.09 µM | 1.81 µM | 3.87 µM | 2.8 µM | 7.07 µM | 3.59 µM | 14.5 µM | 1.71 µM | 3.23 µM | 2.59 µM | 7.95 µM | 2.17 µM | 5.04 µM | 2.89 µM | 11.1 µM | 1.9 µM | 4.59 µM
CNC(=S)N(C1CCCCC1)C1CCCCC1 | – | > 100 µM | – | > 100 µM | – | > 100 µM | – | > 100 µM | – | > 100 µM | – | > 100 µM | – | > 100 µM | – | > 100 µM | – | > 100 µM | – | > 100 µM
CCN(CC)CCOc1ccc(Cc2ccccc2)cc1 | 26.2 µM | > 100 µM | 26.9 µM | > 100 µM | 30.8 µM | > 100 µM | 22.5 µM | 63 µM | 44 µM | > 100 µM | 15.2 µM | 33.3 µM | 25.6 µM | > 100 µM | 12.3 µM | 33.9 µM | 68.7 µM | > 100 µM | 28.2 µM | > 100 µM
O=C(O)CNC(=O)C1NC(C(F)(F)F)(C(F)(F)F)OC1(C(F)(F)F)C(F)(F)F (centres undefined) | – | > 100 µM | – | > 100 µM | – | > 100 µM | – | > 100 µM | – | > 100 µM | – | > 100 µM | – | > 100 µM | – | > 100 µM | – | > 100 µM | – | > 100 µM
COc1ccc(C(=O)c2cc(C)c(OC)c(C)c2)c(OC)c1N(C(=O)CCl)C(=O)CCl | 0.0467 µM | 18.4 µM | 0.0398 µM | 1.58 µM | 0.067 µM | 23.5 µM | 16.8 µM | > 88.4 µM | 0.0514 µM | > 83.8 µM | 0.0731 µM | 2.66 µM | 0.0421 µM | 6.07 µM | 0.307 µM | 22.5 µM | 0.05 µM | > 71.1 µM | 0.149 µM | 18.9 µM
CN[C@H]1CC[C@]23C[C@]24CC[C@]2(C)[C@@H]([C@H](C)N(C)C)CC[C@@]2(C)[C@@H]4CC[C@H]3C1(C)C | – | 29 µM | – | 33.6 µM | – | 32.1 µM | – | 32.8 µM | – | 38.2 µM | – | 18.9 µM | – | 31.8 µM | – | 14.2 µM | – | 43.3 µM | – | 38.2 µM
C[C@H](C(O)CC(=O)C(C)(C)O)[C@H]1CC[C@@]2(C)[C@@H]3CC[C@H]4C(C)(C)[C@@H](OC5OC(COC6OC(CO)C(O)C(O)C6O)C(O)C(O)C5O)CC[C@]4(C)C3=CC[C@]12C (some centres undefined) | – | > 100 µM | – | > 100 µM | – | > 100 µM | – | > 100 µM | – | > 100 µM | – | > 100 µM | – | > 100 µM | – | > 100 µM | – | > 100 µM | – | > 100 µM
COC1C(O)CC(OC2CC(OC3CC(O[C@@H]4C(=O)c5c(cc6cc(OC7CC(OC8CC(O)C(O)C(C)O8)C(O)C(C)O7)c(C)c(O)c6c5O)CC4[C@H](OC)[C@@H](O)C(C)=O)OC(C)C3O)OC(C)C2O)OC1C (some centres undefined) | 0.0243 µM | > 33.3 µM | 0.0166 µM | 0.597 µM | 0.00977 µM | 0.036 µM | 0.0187 µM | 0.0923 µM | 0.0211 µM | > 33.3 µM | 0.0067 µM | 0.0325 µM | 0.0124 µM | > 33.3 µM | 0.00995 µM | 0.0295 µM | 0.0099 µM | > 33.3 µM | 0.051 µM | > 33.3 µM
CCN(CC)CCC(=O)N1C/C(=C/c2ccccc2)C(=O)/C(=C\c2ccccc2)C1 | – | 2.9 µM | – | 11 µM | – | 4.92 µM | – | 4.98 µM | – | 20.9 µM | – | 0.949 µM | – | 2.51 µM | – | 2.24 µM | – | 6.63 µM | – | 2.57 µM
CCN(CC)c1ccc(/C=N/NC(=O)c2ccccc2Nc2ccnc(C(F)(F)F)c2)c(O)c1 | 0.997 µM | > 100 µM | 0.0845 µM | > 100 µM | 0.206 µM | 0.852 µM | 0.303 µM | 1.72 µM | 0.169 µM | > 100 µM | 0.0837 µM | – | 0.268 µM | > 100 µM | 0.362 µM | > 100 µM | 0.363 µM | > 100 µM | 0.261 µM | > 100 µM
C=C(C)[C@@H]1CC[C@]2(CN)CC[C@]3(C)[C@H](CC[C@@H]4[C@@]5(C)CCC(N)[C@@](C)(CO)[C@@H]5CC[C@]43C)[C@@H]12 (some centres undefined) | 1.65 µM | 3.1 µM | 1.96 µM | 3.57 µM | 1.85 µM | 3.33 µM | 1.77 µM | 3.24 µM | 1.8 µM | 3.2 µM | 1.64 µM | 3.1 µM | 1.79 µM | 3.37 µM | 1.59 µM | 3.12 µM | 1.87 µM | 3.34 µM | 1.84 µM | 3.32 µM
CCCC(=O)Nc1c(I)cc(I)c(CC(CC)C(=O)O)c1I (centres undefined) | > 100 µM | > 100 µM | > 100 µM | > 100 µM | > 100 µM | > 100 µM | > 100 µM | > 100 µM | > 100 µM | > 100 µM | > 100 µM | > 100 µM | > 100 µM | > 100 µM | > 100 µM | > 100 µM | > 100 µM | > 100 µM | > 100 µM | > 100 µM
